Laboratory results taken from US20250059162A1, “MULTI-PROTEIN DEGRADATION AGENT HAVING IMIDE SKELETON” (SUZHOU KINTOR PHARMACEUTICALS, INC., priority 2021, published 2025).

How the values were obtained:
Assay type in all cases: cell-based
HL60 cells = assay: Anti-proliferation on HL60 cells (CellTiter-Glo, 3 days); details: Homo sapiens, HL-60, 72 h, 3 days incubation, CTG luminescence, IC50 by XLfit, read-out: HL60 cells Proliferation inhibitory activity
Method: HL60 cells (Cell Bank of Chinese Academy of Sciences) in the logarithmic growth phase were counted and plated evenly in a 96-well transparent bottom white plate at 20000 cells per well and 100 μL per well.
A certain amount of the compound of the present invention was weighed and diluted with DMSO to a 10 mM stock solution. The culture medium RPMI-1640 (meilunbio, MA0215) corresponding to the cells were taken, and the compound was diluted to the concentration required by the test, shaken gently and mixed evenly. 50 μL of the gradient dilution of the diluted compound was added to each well of the plated cells, and 50 μL of 0.1% DMSO was added to the control group. The plate was shaken gently, mixed evenly and incubated in a cell culture incubator for 3 days.
• 3.1 The CellTiter-Glo™ (CTG) (purchased from Promega, Cat. No. G9242) reagent was taken in advance from the −20° C. refrigerator and equilibrated to room temperature in the dark. Cell Titer-Glo buffer and Cell Titer-Glo substrate were mixed at a ratio of 1:1 to prepare a CTG detection reagent. • 3.2 The 96-well plate was taken out and inspected under a microscope for growth. • 3.3 The bottom of the 96-well plate was tagged with white paper, and then the plate was wrapped with tin foil paper, shaken at 37° C. at 300 r for 10 min and mixed evenly. • 3.4. 50 μL of CTG detection reagent was added to each well, Luminescence signal was detected using a microplate reader Biotek Synergy Hi, and the inhibition rate was calculated. IC50 values of the compounds were calculated by XLfit 5.5.0 software to evaluate the proliferation inhibitory activity on HL60 cells.

c-Myc protein = target: T1, c-Myc protein (Homo sapiens, UniProt P01106); assay: c-Myc protein degradation in HL60 cells (Western blot); details: HL-60, compound at 10 nM, 24 h, gray value relative to Ctrl (DMSO), read-out: Remaining amount of c-Myc protein (@10 nM/Ctrl)
T1 construct: degradation of myc and GSPT1 proteins in HL60 cells; endogenous in cells; host or cells: HL60
T1 sequence (P01106 whole entry): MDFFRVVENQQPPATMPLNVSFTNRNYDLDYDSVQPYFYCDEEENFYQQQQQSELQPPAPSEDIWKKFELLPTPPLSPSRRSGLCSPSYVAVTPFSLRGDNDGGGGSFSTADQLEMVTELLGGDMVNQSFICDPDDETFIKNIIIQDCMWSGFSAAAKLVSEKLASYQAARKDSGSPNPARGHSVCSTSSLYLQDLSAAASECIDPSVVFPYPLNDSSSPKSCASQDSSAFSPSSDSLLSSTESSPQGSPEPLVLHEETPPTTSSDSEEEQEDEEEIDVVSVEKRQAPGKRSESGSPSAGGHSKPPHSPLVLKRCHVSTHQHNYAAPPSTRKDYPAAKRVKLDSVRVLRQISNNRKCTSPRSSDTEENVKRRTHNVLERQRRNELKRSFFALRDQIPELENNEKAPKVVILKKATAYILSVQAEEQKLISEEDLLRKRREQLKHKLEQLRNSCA
Method: (§1) HL60 cells in the exponential growth phase were digested and plated into a 6-well plate at 1×10^6 cells per well. The cell culture medium was RPMI-1640 (meilunbio, MA0215). After a day of adherent growth of the cells, the compound of the present invention was added as a test drug for culture, and proteins were extracted 24 h later (Ctrl meant adding only DMSO at the same volume).
(§2) In the 6-well plate, the culture medium RPMI-1640 (meilunbio, MA0215) was removed, and the cells were washed once with PBS, digested with trypsin, and centrifuged and collected separately into 1.5 mL centrifuge tubes. 100 μL of RIPA lysis buffer (containing 100 μM PMSF) was added to each tube, mixed thoroughly, allowed to stand on ice for 30 min and then centrifuged at 12000 rpm at 4° C. using a centrifuge for 20 min. The supernatant was used for Western blotting experiments. The sample can be stored at −80° C.
(§3) By using the BCA protein concentration determination kit (from Thermo Fisher, Cat. No. 23225), the BSA standard determination solution and the samples to be tested (the samples to be tested can be diluted and then tested) were prepared according to the table A below. Samples were added to the 96-well plate. Each well was supplemented with PBS to 20 μL, and then 200 μL of BCA working solution (prepared according to the kit) was added respectively and mixed evenly. The plate was placed at 60° C. for 10 min, and then the absorbance at 562 nm was detected. After the reading was recorded, a standard curve was plotted using concentration gradients of the standards, and the absorbance of the samples was substituted to calculate the protein concentration of the samples.
(§4) • 2.1 Protein denaturation: RIPA protein buffer (purchased from Solarbio, Cat. No. R0010) and 5× Loading Buffer (SDS, glycerin, bromophenol blue, TRIS) (purchased from Solarbio, Cat. No. P1040) were added, and the protein samples were denatured at 100° C. for 5 min. • 2.2 Sample loading and electrophoresis: 10% precast gel and the corresponding electrophoresis buffer were used. The same mass of protein sample and protein ladder (purchased from thermo, Cat. No. 26617) were loaded into each well, and electrophoresis at 200 V was performed for 30 min. • 2.3 […]: The gel was excised to remove the excess part. Transferring to PVDF membrane was performed by the wet transfer method (before use, it was necessary to activate the PVDF membrane with methanol for 1 min) at 300 mA for 2 h, during which a lot of heat was generated, and thus cooling with an ice box was required. • 2.4 Blocking: After the transferring, the PVDF membrane was placed in 5% skim milk and blocked with shaking at room temperature for 1 h. • 2.5 Incubating with primary antibody: The PVDF membrane was cut according to the molecular weight indicated on the marker and placed in c-myc (purchased from abcam, Cat. No. ab32072), or GSPT1 (purchased from abcam, Cat. No. ab234433), or CK1α (purchased from abcam, Cat. No. ab206652), or IKZF2 (purchased from proteintech, Cat. No. 13554-1-AP), and GAPDH (purchased from CST, Cat. No. #97166) primary antibodies. The antibodies were diluted with TBST buffer (a solution prepared from TRIS, KCL and NaCl and adjusted to pH 7.4 with hydrochloric acid, and Tween 20 was added) at a ratio of 1:1000, and blocked overnight on a shaker at 4° C. • 2.6 Incubating with secondary antibody: The PVDF membrane incubated with the primary antibody was washed with TBST for 3 times, each time for 10 min. After washing, the membrane was placed in the secondary antibody of the corresponding species, and incubated at room temperature in a shaker for 2 h. • 2.7 Washing membrane and exposure: After incubated with the secondary antibodies, the membrane was washed 3 times with TBST on a shaker, 10 minutes each time. […]

GSPT1 protein = target: T2, GSPT1 protein (Homo sapiens, UniProt P15170); assay: GSPT1 protein degradation in HL60 cells (Western blot); details: for remaining GSPT1 protein at 0.01 µM: HL-60, compound at 10 nM, 24 h, gray value relative to Ctrl (DMSO), read-out: Remaining amount of GSPT1 protein (@10 nM/Ctrl)
T2 construct: degradation of myc and GSPT1 proteins in HL60 cells; endogenous in cells; host or cells: HL60
T2 sequence (P15170 whole entry): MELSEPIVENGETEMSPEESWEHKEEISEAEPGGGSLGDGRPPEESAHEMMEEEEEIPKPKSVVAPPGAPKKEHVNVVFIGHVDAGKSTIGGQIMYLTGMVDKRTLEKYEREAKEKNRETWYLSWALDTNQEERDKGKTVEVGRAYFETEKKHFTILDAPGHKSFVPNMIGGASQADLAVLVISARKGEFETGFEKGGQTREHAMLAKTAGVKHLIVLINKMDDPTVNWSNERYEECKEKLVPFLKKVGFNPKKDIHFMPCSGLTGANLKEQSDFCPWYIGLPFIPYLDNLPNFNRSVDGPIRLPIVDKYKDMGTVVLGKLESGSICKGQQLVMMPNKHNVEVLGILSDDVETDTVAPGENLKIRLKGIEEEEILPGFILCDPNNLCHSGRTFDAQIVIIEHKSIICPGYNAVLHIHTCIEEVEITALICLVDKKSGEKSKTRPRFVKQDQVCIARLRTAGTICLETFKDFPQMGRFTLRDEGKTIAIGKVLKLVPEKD
Method: as §1, §2, §3, §4

Row | IC50 (HL60 cells) | remaining activity at 0.01 µM (c-Myc protein) | remaining GSPT1 protein at 0.01 µM (GSPT1 protein) | Degradation of GSPT1 protein in HL60 cells at 300 nM (FIG. 2, FIG. 3, in words) (GSPT1 protein) | SMILES
1 | 1 nM | 8% | 3% |  | Cc1cccc(-c2cnc(N3CCC(F)(CNCc4ccc5c(c4)CN(C4CCC(=O)NC4=O)C5=O)CC3)c(C(F)(F)F)c2)c1 (stereo not shown) [Compound A85]
2 | < 0.2 nM | 0% | 0% |  | COC(=O)c1cc(-c2cccc(Cl)c2)cnc1N1CCC(CNCc2ccc3c(c2)CN(C2CCC(=O)NC2=O)C3=O)CC1 (stereo not shown) [Compound A100]
3 | < 0.2 nM | 0% | 14% |  | O=C1CCC(N2Cc3cc(CNC(=O)C4CCN(c5ncc(-c6cccc(Cl)c6)cn5)CC4)ccc3C2=O)C(=O)N1 (stereo not shown) [Compound A65]
4 | 1.2 nM | 4% | 0% |  | O=C1CCC(N2Cc3cc(CNCC4(F)CCN(c5ncc(-c6cccc(Cl)c6)cc5C(F)(F)F)CC4)ccc3C2=O)C(=O)N1 (stereo not shown) [Compound A83]
5 | 0.2 nM | 44% |  |  | O=C1CCC(N2Cc3cc(NC(=O)CC4CCN(c5ccc(-c6cccc7ccccc67)nc5)CC4)ccc3C2=O)C(=O)N1 (stereo not shown) [Compound A37]
6 | 139 nM |  |  | significantly degrade GSPT1 protein | O=C1CCC(n2nc3cc(CNCC4CCN(c5ncc(-c6cccc(Cl)c6)cc5C(F)(F)F)CC4)ccn3c2=O)C(=O)N1 (stereo not shown) [Compound A146]
7 | < 0.2 nM | 0% | 0% |  | O=C1CC[C@H](N2Cc3cc(CNCC4CCN(c5ncc(-c6cccc(Cl)c6)cc5C(F)(F)F)CC4)ccc3C2=O)C(=O)N1 [Compound A81]
8 | < 0.2 nM | 0% | 0% |  | O=C1CCC(N2Cc3cc(CNCC4CCN(c5ncc(-c6cccc(Cl)c6)cc5Cl)CC4)ccc3C2=O)C(=O)N1 (stereo not shown) [Compound A75]
9 | 17.1 nM | 95% | 47% |  | O=C1CCC(N2Cc3cc(CNCC4CCN(c5ncc(-c6cccc(Cl)c6)cc5C(F)(F)F)CC4)c(F)cc3C2=O)C(=O)N1 (stereo not shown) [Compound A140]
10 | 9.1 nM | 46% | 1% |  | O=C1CCC(N2Cc3cc(CNCC4CCN(c5ncc(-c6ccccc6F)cc5F)CC4)ccc3C2=O)C(=O)N1 (stereo not shown) [Compound A107]
11 | 22 nM | 30% | 53% |  | N#Cc1cccc(-c2cnc(N3CCC(CNCc4ccc5c(c4)CN(C4CCC(=O)NC4=O)C5=O)CC3)nc2)c1 (stereo not shown) [Compound A69]
12 | < 0.2 nM | 6% | 0% |  | O=C1CCC(N2Cc3cc(CNCC4CCN(c5ncc(-c6ccccc6)cc5C(F)(F)F)CC4)ccc3C2=O)C(=O)N1 (stereo not shown) [Compound A92]
13 | 0.3 nM | 0% | 4% |  | O=C1CCC(N2Cc3cc(CNCC4CCN(c5ncc(-c6cccc7ccccc67)s5)CC4)ccc3C2=O)C(=O)N1 (stereo not shown) [Compound A61]
14 | < 0.2 nM | 0% | 0% |  | COc1cccc(-c2cnc(N3CCC(CNCc4ccc5c(c4)CN(C4CCC(=O)NC4=O)C5=O)CC3)c(C(F)(F)F)c2)c1 (stereo not shown) [Compound A95]
15 | 0.9 nM | 52% |  |  | O=C1CCC(N2Cc3cc(C(=O)NCC4CCN(c5nccc(-c6ccc7ccccc7c6)n5)CC4)ccc3C2=O)C(=O)N1 (stereo not shown) [Compound A38]
16 | 387 nM |  |  | significantly degrade GSPT1 protein | O=C1CCC(N2Cc3ccc(CNCC4CCN(c5ncc(-c6cccc(Cl)c6)cc5C(F)(F)F)CC4)cc3C2)C(=O)N1 (stereo not shown) [Compound A145]
17 | < 0.2 nM | 19% |  |  | O=C1CCC(N2Cc3cc(NC(=O)CC4CCN(c5ccc(-c6cccc7cccc(F)c67)cn5)CC4)ccc3C2=O)C(=O)N1 (stereo not shown) [Compound A47]
18 | < 0.2 nM | 14% |  |  | O=C1CCC(N2Cc3cc(NC(=O)CC4CCN(c5ncc(-c6cccc7ccccc67)cn5)CC4)ccc3C2=O)C(=O)N1 (stereo not shown) [Compound A30]
19 | 0.9 nM | 43% |  |  | O=C1CCC(N2Cc3cc(NC(=O)CC4CCN(c5ncc(-c6cccc7ccccc67)o5)CC4)ccc3C2=O)C(=O)N1 (stereo not shown) [Compound A28]
20 | < 0.2 nM | 10% |  |  | O=C1CCC(N2Cc3cc(NC(=O)CC4CCN(c5ncc(-c6cccc(Cl)c6)cn5)CC4)ccc3C2=O)C(=O)N1 (stereo not shown) [Compound A53]
21 | < 0.2 nM | 23% |  |  | O=C1CCC(N2Cc3cc(NC(=O)CC4CCN(c5ccc(-c6cccc7cccnc67)cn5)CC4)ccc3C2=O)C(=O)N1 (stereo not shown) [Compound A43]
22 | 0.5 nM | 0% |  |  | O=C1CCC(N2Cc3cc(NC(=O)CC4CCN(c5ncc(-c6cccc7ccccc67)s5)CC4)ccc3C2=O)C(=O)N1 (stereo not shown) [Compound A24]
23 | 0.2 nM | 13% |  |  | O=C1CCC(N2Cc3cc(C(=O)NCC4CCN(c5ncc(-c6cccc7ccccc67)cn5)CC4)ccc3C2=O)C(=O)N1 (stereo not shown) [Compound A29]
24 | 1.2 nM | 23% |  |  | O=C1CCC(N2Cc3cc(NC(=O)CC4CCN(c5cc(-c6cccc7ccccc67)ccn5)CC4)ccc3C2=O)C(=O)N1 (stereo not shown) [Compound A17]
25 | < 0.2 nM | 9% |  |  | O=C1CCC(N2Cc3cc(CNCC4CCN(c5ncc(-c6cccc(Cl)c6)cn5)CC4)ccc3C2=O)C(=O)N1 (stereo not shown) [Compound A66]
26 | 2.47 nM |  |  |  | COc1cccc(-c2cnc(N3CCC(F)(CNCc4ccc5c(c4)CN(C4CCC(=O)NC4=O)C5=O)CC3)c(F)c2)c1 (stereo not shown) [Compound A120]
27 | 0.2 nM |  |  |  | O=C1CCC(N2Cc3cc(NC(=O)CC4CCN(c5ccc(-c6ccc7ccccc7c6)cn5)CC4)ccc3C2=O)C(=O)N1 (stereo not shown) [Compound A41]
28 | 9860 nM |  |  |  | O=C1C[C@H](N2Cc3cc(CNCC4CCN(c5ncc(-c6cccc(F)c6)cc5F)CC4)ccc3C2=O)C(=O)N1 [Compound A170]
29 | 4.5 nM |  |  |  | O=C1CCC(N2Cc3cc(C(=O)NCC4CCN(c5nccc(-c6cccc7ccccc67)n5)CC4)ccc3C2=O)C(=O)N1 (stereo not shown) [Compound A12]
30 | 1.5 nM |  |  |  | O=C1CCC(N2Cc3cc(NC(=O)CC4CCN(c5ncc(C6CC6)cn5)CC4)ccc3C2=O)C(=O)N1 (stereo not shown) [Compound A49]
